The results in this text go back to US7271160B2, “Methods and compositions for degradation and/or inhibition of HER-family tyrosine kinases” (Sloan-Kettering Institute for Cancer Research, priority 1999, dated 2007).

“Also recorded” adds a separate entry of the source. Where only a bound is given, the exact number is not on record here.

Experiment [1] deals with HER2. As to the kind of experiment: Induction of HER2 degradation in MCF-7 cells (immunoblotting). It counts as cell-based, human. The conditions noted are these: for IC50: 24-hr treatment, amount of drug needed to degrade 50% of the protein vs control, average of three experiments, read-out: IC50 (HER-2); for specificity/selectivity for HER-2 over Raf-1: compared to GM. As for the experimental part:
(§1) After exposure, cells were washed twice with ice-cold phosphate-buffered saline (PBS), collected by scraping and transferred into microcentrifuge tubes. For immunoblotting (HER2, Raf-1, ER), cells were lysed with SDS lysis buffer (50 mM Tris-HCl, pH 7.5, 2% SDS, 10% glycerol, and 1 mM DTT), boiled for 10 min, and sonicated briefly; for immanoprecipitation (IGF-IR), cells were lysed with NP40 lysis buffer (50 mM Tris-HCl, pH 7.5, 1% Nonidet P-40, 150 mM NaCl, 1 mM Na3VO4, 40 mM NaF, 1 mM phenylmethylsulfonyl fluoride (PMSF) and 10 μg/ml each of aprotinin, leupeptin and soybean trypsin inhibitor) for 20 min at 4° C. Cell lysates were cleared by centrifuging at 14,000×g for 15 min at 4° C. in a microcentrifuge; the supernatants were collected as the experimental samples. Protein concentration in each sample was determined using the BCA kit (Pierce) according to the manufacture's instructions. For detecting IGF-IR, samples were immunoprecipitated with anti-IGF-IR antibody. Immunocomplexes were collected on protein A-Sepharose beads (Pharmacia), washed three tires with the lysis buffer. Samples were subjected to SDS-PAGE, electrotransferred to nitrocellulose membranes, detected using the ECL kit (Amersham) according to the manufacturer's protocol, and quantitated using the Gel Doc 1000 (Bio-Rad).
(§2) Numerical results for IC50 for HER-2, Raf-1 and cell growth are summarized in Table 1, with each number representing the average of three different experiments.
A general note: Immunoblotting shows a protein as a band on a membrane.

Experiment [2] concerns Raf-1. As to the kind of experiment: Induction of Raf-1 degradation in MCF-7 cells (immunoblotting). The conditions noted are these: for IC50: 24-hr treatment, amount of drug needed to degrade 50% of the protein vs control, average of three experiments. It counts as cell-based, human. As to the method:
as §1, §2

The next experiment relates to MCF-7 cells. The experiment in a line: MCF-7 cell growth inhibition (cell counting). It counts as cell-based. The conditions noted are these: Homo sapiens, MCF7, 96 h; MCF-7 cells treated for four days; 50% growth inhibition vs vehicle; average of three experiments; read-out: IC50 (growth inh.). As for the experimental part:
(§3) The human breast cancer cell lines MCF-7 and SKBR-3 were obtained from ATCC (Rockville, Md.), and maintained in DME/F12 (1:1) supplemented with 10% heat-inactivated fetal bovine serum (Gemini Bioproducts), 2 mM glutamine, and 50 units/ml each of penicillin and streptomycin, in a humidified 5% CO2/air atmosphere at 37° C.
For cell growth experiments, cells were plated in 6-well tissue-culture plates (Corning) at 20,000 cells/well. Two days after plating, cells were treated with different concentrations of drugs or the vehicle DMSO (0.1%). MCF-7 cells were treated for four days; medium with the appropriate drug or vehicle was changed every 2 days; cells were trypsinized, collected and counted on a Coulter counter; IC50 for cell growth is designated as the amount of each drug needed to inhibit MCF-7 growth by 50% compared to the control vehicle.

Another experiment has as its system SKBR3. As to the kind of experiment: SKBR3 breast cancer cell sensitivity. In kind it is cell-based, human. The note with it: SKBR3, HER2 highly overexpressed. As for the experimental part: as §3
In another experiment the test system is IGF-IR. The experiment in a line: Immunofluorescence of IGF-IR in MCF-7 cells. The conditions noted are these: vs DMSO control. It counts as cell-based, human. As for the experimental part: (§4) MCF-7 cells were grown and treated on fibronectin-coated coverslips placed in multiwell plates. Cells were fixed for 20 min at −20° C. in 100% methanol, rehydrated in PBS for 10 min at room temperature and blocked for 30 min at 37° C. in a blocking solution consisting of 2% bovine serum albumin (BSA), 10% normal goat serum and 0.05% Tween-20 in PBS. HER2 and Raf-1 were immunodetected with antibodies from Santa Cruz (SC284 and SC133, respectively); IGF-IR, an antibody from Calbiochem Oncogene Science (Abl). Slides were incubated with a […] of the primary antibody in blocking buffer for 1 hr at room temperature, followed by an incubation with Alexa 546-coupled goat anti-rabbit lgG secondary antibody (A-11010, Molecular Probes) at a […] in blocking buffer, or fluoresceine isothiocyanate-coupled goat anti-mouse IgG (F276, Molecular Probes) at a […]. […] DNA was stained with bisbenzimide, which was included in the secondary antibody solution (3 μg/ml final concentration. Coverslips were mounted on glass slides using Vectashield (Vector), to prevent quenching of fluorescence. Immunofluorescence was detected with a Zeiss epifluorescence microscope, at 40× and 100×, using appropriate filters for detection of rhodamine and bisbenzimide, and via confocal microscopy.

The test system of a further experiment is 32D cells. As to the kind of experiment: 32D cell growth (HER-kinase negative cells, daily cell counts). In kind it is cell-based, murine. The note with it: 32D cells lacking HER-kinases; various concentrations, counted daily for three days. As to the method:
Murine hematopoietic cell line 32D, which lacks HER-kinases, was kindly provided by Dr Yosef Yarden (The Weizmann Institute of Science, Israel), and maintained in RPMI-1640 supplemented with 10% heat-inactivated FBS, 2 nm interleukin 3 (R&D systems), 2 mM glutamine, and 50 units/ml each of penicillin and streptomycin.

The test system of experiment [3] is HER2. As to the kind of experiment: Immunofluorescence of HER2 in MCF-7 cells. In kind it is cell-based, human. The conditions noted are these: vs DMSO control. As for the experimental part: as §4
Another experiment deals with estrogen receptor. The experiment in a line: Estrogen receptor level in MCF-7 cells (immunoblotting time course). In kind it is cell-based, human. The note with it: 1 μM, 3 to 24 hours.
For the next experiment, the system named is HER-2 and Raf-1. The experiment in a line: Varying concentration and treatment pattern, HER-2 and Raf-1 levels (Example 3). It counts as cell-based.
For experiment [4], the system named is Raf-1. The experiment in a line: Immunofluorescence of Raf-1 in MCF-7 cells. In kind it is cell-based, human. The note with it: vs DMSO control. As to the method: as §4
The subject of the next experiment is IGF-I receptor. The experiment in a line: IGF-I receptor level in MCF-7 cells (immunoprecipitation/immunoblotting time course). In kind it is cell-based, human. The conditions noted are these: 1 μM, 3 to 24 hours. As to the method:
as §1, with “For immunoblotting (HER2, Raf-1, ER), cells were lysed with SDS lysis buffer (50 mM Tris-HCl, pH 7.5, 2% SDS, 10% glycerol, and 1 mM DTT), boiled for 10 min, and sonicated briefly; for immanoprecipitation (IGF-IR), cells were lysed with NP40 lysis buffer (50 mM Tris-HCl, pH 7.5, 1% Nonidet P-40, 150 mM NaCl, 1 mM Na3VO4, 40 mM NaF, 1 mM phenylmethylsulfonyl fluoride (PMSF) and 10 μg/ml each of aprotinin, leupeptin and soybean trypsin inhibitor) for 20 min at 4° C.” left out

As to `CC(C)C(C)C` [GMD-aa], in the experiment with HER2 [1], the “activity against HER2 (in words)” value was “inactive” and the 50% inhibitory concentration (IC50) is above 5 µM. Moreover, in the experiment with Raf-1 [2], the “activity against Raf-1 (in words)” value is “inactive” and the half-maximal inhibitory concentration (IC50) was above 5 µM. In addition, the 50% inhibitory concentration (IC50) with MCF-7 cells was above 2 µM.
As for `COC1C=CC=C(C)C(=O)NC2=CC(=O)C(NCCCCCCCNC3=C4CC(C)CC(OC)C(O)C(C)C=C(C)C(OC(N)=O)C(OC)C=CC=C(C)C(=O)NC(=CC3=O)C4=O)=C(CC(C)CC(OC)C(O)C(C)C=C(C)C1OC(N)=O)C2=O` (stereo not drawn) [GMD-7c], the IC50 in the experiment with HER2 [1] amounted to 0.07 µM; with Raf-1 [2] it was 0.5 µM; in the experiment with MCF-7 cells, 0.6 µM.
The like results for `COC1C=CC=C(C)C(=O)NC2=CC(=O)C(NCCCCCCCCCCCCNC3=C4CC(C)CC(OC)C(O)C(C)C=C(C)C(OC(N)=O)C(OC)C=CC=C(C)C(=O)NC(=CC3=O)C4=O)=C(CC(C)CC(OC)C(O)C(C)C=C(C)C1OC(N)=O)C2=O` (stereo not drawn) [twelve carbon-linked compound] were, in that order, 0.75 µM, 3.5 µM and 0.7 µM.
Turning to `COC1C=CC=C(C)C(=O)NC2=CC(=O)C(NCCCCN)=C(CC(C)CC(OC)C(O)C(C)C=C(C)C1OC(N)=O)C2=O` (stereo not drawn) [ButylaminoGM], in the experiment with HER2 [1], the “activity against HER2 (in words)” value is “modestly weaker than GM”, the IC50 worked out at 0.055 µM and the “specificity/selectivity for HER-2 over Raf-1” value is “not selective”. Moreover, the “activity against Raf-1 (in words)” value in the experiment with Raf-1 [2] is given as “modestly weaker than GM”.
In the case of `COC1C=CC=C(C)C(=O)NC2=CC(=O)C(NCCCCCCCCCNC3=C4CC(C)CC(OC)C(O)C(C)C=C(C)C(OC(N)=O)C(OC)C=CC=C(C)C(=O)NC(=CC3=O)C4=O)=C(CC(C)CC(OC)C(O)C(C)C=C(C)C1OC(N)=O)C2=O` (stereo not drawn), the concentration for half-maximal inhibition (IC50) in the experiment on HER2 [1] came to 0.5 µM; in the experiment on Raf-1 [2], 3.8 µM; in the experiment on MCF-7 cells, 0.7 µM.
With `COC1C=CC=C(C)C(=O)NC2=CC(=O)C(NCCCCNC3=C4CC(C)CC(OC)C(O)C(C)C=C(C)C(OC(N)=O)C(OC)C=CC=C(C)C(=O)NC(=CC3=O)C4=O)=C(CC(C)CC(OC)C(O)C(C)C=C(C)C1OC(N)=O)C2=O` (stereo not drawn) [GMD-4c], the “sensitivity of SKBR3 cells” value in the experiment with SKBR3 is given as “very sensitive”. Moreover, the “anti-IGF-IR staining (immunofluorescence)” value in the experiment with IGF-IR is given as “only observed for the anti-HER2 antibodies”. In addition, the “effect on growth of 32D cells” value with 32D cells is recorded as “does not appreciably affect its growth; also recorded: much less so”. The “HER2 / HER-kinase expression over time” value in the experiment on HER2 [1] (1 μM, 3 to 24 hours, Western blot and immunohistochemical analysis) is on record as “reduces HER2 expression with the same kinetics”. The figures for the half-inhibitory concentration (IC50) in the experiment with HER2 [1], with Raf-1 [2] and in the experiment on MCF-7 cells were 0.06 µM, 3.2 µM and 0.1 µM, respectively. In the experiment with HER2 [1], the “specificity/selectivity for HER-2 over Raf-1” value is recorded as “greatest selectivity of the compounds tested”. Moreover, in the experiment on HER2 [3], the “anti-HER2 staining (immunofluorescence)” value was “significant reduction in fluorescence levels”. Also, the “Estrogen receptor levels over time” value in the experiment with estrogen receptor is “declined transiently but returned to baseline by 24 hours”. The “Raf-1 expression over time” value with Raf-1 [2] (1 μM, 3 to 24 hours) was “does not affect”. Further, the “amount of HER-2 and Raf-1 as a function of the treatment pattern” value in the experiment on HER-2 and Raf-1 (0.25, 0.5 and 1 μM, single or repeated treatments at 0, 3, 6, 12 hours) is “No significant differences”. Also, in the experiment on HER-2 and Raf-1 (high concentrations added four times in twelve hours), the “selectivity on repeated addition” value was “retained selectivity”. Further, in the experiment on Raf-1 [4], the “anti-Raf-1 staining (immunofluorescence)” value was “only observed for the anti-HER2 antibodies”. In the experiment on IGF-I receptor, the “IGF-I receptor expression over time” value is listed as “does not affect”.

What is called IC50 is the concentration that gives 50% inhibition.
